Active and inactive are the calls of the source. How the calls were made is not given here.

For this data set, the system named is CCRIS mutagenicity, Ames/micronucleus/aberration tests. The data set can be described thus: CCRIS mutagenicity studies.
[1] abbreviates: Test System: AMES SALMONELLA TYPHIMURIUM, Strain/Indicator: TA98, Metabolic Activation: NONE, Method: PREINCUBATION
Where [2] appears, read: Test System: AMES SALMONELLA TYPHIMURIUM, Strain/Indicator: TA100, Metabolic Activation: NONE, Method: PREINCUBATION
The mark [3] stands for this setting: Test System: AMES SALMONELLA TYPHIMURIUM, Strain/Indicator: TA1535, Metabolic Activation: NONE, Method: PREINCUBATION

For the compound `O=[N+]([O-])c1c(Cl)c(Cl)cc(Cl)c1Cl`, the mutagenic call was “inactive; negative” (End Point: IN VITRO CHROMOSOMAL ABERRATIONS, Test System: CHINESE HAMSTER OVARY CELLS, Metabolic Activation: NONE); “inactive; negative” (End Point: IN VITRO CHROMOSOMAL ABERRATIONS, Test System: CHINESE HAMSTER OVARY CELLS, Metabolic Activation: RAT, LIVER, S-9, AROCLOR 1254); “inactive; negative” (Test System: AMES SALMONELLA TYPHIMURIUM, Strain/Indicator: TA98, Metabolic Activation: HAMSTER, LIVER, S-9, AROCLOR 1254, Method: PREINCUBATION); “inactive; negative” under setting [1]; “inactive; negative” (Test System: AMES SALMONELLA TYPHIMURIUM, Strain/Indicator: TA98, Metabolic Activation: RAT, LIVER, S-9, AROCLOR 1254, Method: PREINCUBATION); “inactive; negative” (Test System: AMES SALMONELLA TYPHIMURIUM, Strain/Indicator: TA100, Metabolic Activation: HAMSTER, LIVER, S-9, AROCLOR 1254, Method: PREINCUBATION). For the same compound, the mutagenic call under setting [2] is “inactive; negative”; the mutagenic call (Test System: AMES SALMONELLA TYPHIMURIUM, Strain/Indicator: TA100, Metabolic Activation: RAT, LIVER, S-9, AROCLOR 1254, Method: PREINCUBATION) is “inactive; negative”; the mutagenic call (Test System: AMES SALMONELLA TYPHIMURIUM, Strain/Indicator: TA1535, Metabolic Activation: HAMSTER, LIVER, S-9, AROCLOR 1254, Method: PREINCUBATION) was “inactive; negative”; the mutagenic call under setting [3] was “inactive; negative”; the mutagenic call (Test System: AMES SALMONELLA TYPHIMURIUM, Strain/Indicator: TA1535, Metabolic Activation: RAT, LIVER, S-9, AROCLOR 1254, Method: PREINCUBATION) was “inactive; negative”; the mutagenic call (Test System: AMES SALMONELLA TYPHIMURIUM, Strain/Indicator: TA1537, Metabolic Activation: HAMSTER, LIVER, S-9, AROCLOR 1254, Method: PREINCUBATION) was “inactive; negative”. Further, the mutagenic call by setting is: (Test System: AMES SALMONELLA TYPHIMURIUM, Strain/Indicator: TA1537, Metabolic Activation: NONE, Method: PREINCUBATION) “inactive; negative”; (Test System: AMES SALMONELLA TYPHIMURIUM, Strain/Indicator: TA1537, Metabolic Activation: RAT, LIVER, S-9, AROCLOR 1254, Method: PREINCUBATION) “inactive; negative”.
Consider `Cc1c(/C=N/OCc2ccc(Cl)cc2Cl)c2cc([N+](=O)[O-])ccc2n1Cc1ccc(Cl)cc1`, for which the mutagenic call reads like this: (Test System: AMES SALMONELLA TYPHIMURIUM, Strain/Indicator: TA98, Metabolic Activation: NONE, Method: STANDARD PLATE) “inactive; negative”; (Test System: AMES SALMONELLA TYPHIMURIUM, Strain/Indicator: TA98, Metabolic Activation: RAT, LIVER, S-9, PHENOBARBITAL AND BETA-NAPHTHOFLAVONE, Method: STANDARD PLATE) “inactive; negative”; (Test System: AMES SALMONELLA TYPHIMURIUM, Strain/Indicator: TA100, Metabolic Activation: NONE, Method: STANDARD PLATE) “inactive; negative”; (Test System: AMES SALMONELLA TYPHIMURIUM, Strain/Indicator: TA100, Metabolic Activation: RAT, LIVER, S-9, PHENOBARBITAL AND BETA-NAPHTHOFLAVONE, Method: STANDARD PLATE) “inactive; negative”.
In the case of `CCN(CC)c1ccc(/C=C/C2=[N+](C)c3ccccc3C2(C)C)cc1`, the mutagenic call is, setting by setting: (Test System: Ames Salmonella typhimurium, Strain/Indicator: TA98, Metabolic Activation: None, Method: Preincubation) “inactive; negative”; (Test System: Ames Salmonella typhimurium, Strain/Indicator: TA98, Metabolic Activation: Rat, Liver, S-9, Aroclor 1254, Method: Preincubation) “inactive; negative”; (Test System: Ames Salmonella typhimurium, Strain/Indicator: TA100, Metabolic Activation: None, Method: Preincubation) “inactive; negative”; (Test System: Ames Salmonella typhimurium, Strain/Indicator: TA100, Metabolic Activation: Rat, Liver, S-9, Aroclor 1254, Method: Preincubation) “inactive; negative”; (Test System: Ames Salmonella typhimurium, Strain/Indicator: TA102, Metabolic Activation: None, Method: Preincubation) “inactive; negative”; (Test System: Ames Salmonella typhimurium, Strain/Indicator: TA102, Metabolic Activation: Rat, Liver, S-9, Aroclor 1254, Method: Preincubation) “inactive; negative”. In addition, the mutagenic call is “inactive; negative” (Test System: Ames Salmonella typhimurium, Strain/Indicator: TA1535, Metabolic Activation: None, Method: Preincubation) and “inactive; negative” (Test System: Ames Salmonella typhimurium, Strain/Indicator: TA1535, Metabolic Activation: Rat, Liver, S-9, Aroclor 1254, Method: Preincubation).
For the compound `CCc1ccccc1O`, the mutagenic call is “inactive; negative” (Test System: AMES SALMONELLA TYPHIMURIUM, Strain/Indicator: TA97, Metabolic Activation: HAMSTER, LIVER, S-9, AROCLOR 1254 (10 OR 30%), Method: PREINCUBATION); “inactive; negative” (Test System: AMES SALMONELLA TYPHIMURIUM, Strain/Indicator: TA97, Metabolic Activation: NONE, Method: PREINCUBATION); “inactive; negative” (Test System: AMES SALMONELLA TYPHIMURIUM, Strain/Indicator: TA97, Metabolic Activation: RAT, LIVER, S-9, AROCLOR 1254 (10 OR 30%), Method: PREINCUBATION); “inactive; negative” (Test System: AMES SALMONELLA TYPHIMURIUM, Strain/Indicator: TA98, Metabolic Activation: HAMSTER, LIVER, S-9, AROCLOR 1254 (10 OR 30%), Method: PREINCUBATION); “inactive; negative” under setting [1]; “inactive; negative” (Test System: AMES SALMONELLA TYPHIMURIUM, Strain/Indicator: TA98, Metabolic Activation: RAT, LIVER, S-9, AROCLOR 1254 (10 OR 30%), Method: PREINCUBATION). The mutagenic call by setting is: (Test System: AMES SALMONELLA TYPHIMURIUM, Strain/Indicator: TA100, Metabolic Activation: HAMSTER, LIVER, S-9, AROCLOR 1254 (10 OR 30%), Method: PREINCUBATION) “inactive; negative”; under setting [2], “inactive; negative”; (Test System: AMES SALMONELLA TYPHIMURIUM, Strain/Indicator: TA100, Metabolic Activation: RAT, LIVER, S-9, AROCLOR 1254 (10 OR 30%), Method: PREINCUBATION) “inactive; negative”; (Test System: AMES SALMONELLA TYPHIMURIUM, Strain/Indicator: TA1535, Metabolic Activation: HAMSTER, LIVER, S-9, AROCLOR 1254 (10 OR 30%), Method: PREINCUBATION) “inactive; negative”; under setting [3], “inactive; negative”; (Test System: AMES SALMONELLA TYPHIMURIUM, Strain/Indicator: TA1535, Metabolic Activation: RAT, LIVER, S-9, AROCLOR 1254 (10 OR 30%), Method: PREINCUBATION) “inactive; negative”.
For `C#CCc1ccc(COC(=O)C2C(C=C(C)C)C2(C)C)o1` (stereo not given), the mutagenic call is “inactive; negative” (Test System: AMES SALMONELLA TYPHIMURIUM, Strain/Indicator: TA98); “inactive; negative” (Test System: AMES SALMONELLA TYPHIMURIUM, Strain/Indicator: TA98, Metabolic Activation: NONE); “active; positive” (Test System: AMES SALMONELLA TYPHIMURIUM, Strain/Indicator: TA100); “inactive; negative” (Test System: AMES SALMONELLA TYPHIMURIUM, Strain/Indicator: TA100, Metabolic Activation: NONE).
Take `CC(=O)Nc1ccc(-c2ccccc2)cc1`: the mutagenic call reads like this: (Test System: AMES SALMONELLA TYPHIMURIUM, Strain/Indicator: TA98, Metabolic Activation: RAT, LIVER, S-9, KC500 OR PHENOBARBITAL, Method: LIQUID SUSPENSION) “active; positive”; (Test System: AMES SALMONELLA TYPHIMURIUM, Strain/Indicator: TA100 (1,8-DNP), Metabolic Activation: MOUSE LIVER S-9, AROCLOR 1254, 10%, Method: PREINCUBATION) “active; positive”; (Test System: AMES SALMONELLA TYPHIMURIUM, Strain/Indicator: TA100 (1,8-DNP), Metabolic Activation: RAT LIVER S-9, AROCLOR 1254, 10%, Method: PREINCUBATION) “active; positive”; (Test System: AMES SALMONELLA TYPHIMURIUM, Strain/Indicator: TA100, Metabolic Activation: MOUSE LIVER S-9, AROCLOR 1254, 10%, Method: PREINCUBATION) “active; positive”; (Test System: AMES SALMONELLA TYPHIMURIUM, Strain/Indicator: TA100, Metabolic Activation: RAT LIVER S-9, AROCLOR 1254, 10%, Method: PREINCUBATION) “active; positive”; (Test System: AMES SALMONELLA TYPHIMURIUM, Strain/Indicator: TA100, Metabolic Activation: RAT, LIVER, S-9, KC500 OR PHENOBARBITAL, Method: LIQUID SUSPENSION) “active; positive”. The mutagenic call reads like this: (Test System: AMES SALMONELLA TYPHIMURIUM, Strain/Indicator: YG1029, Metabolic Activation: MOUSE LIVER S-9, AROCLOR 1254, 10%, Method: PREINCUBATION) “active; positive”; (Test System: AMES SALMONELLA TYPHIMURIUM, Strain/Indicator: YG1029, Metabolic Activation: RAT LIVER S-9, AROCLOR 1254, 10%, Method: PREINCUBATION) “active; positive”.
